{"source": "PubChem BioAssay AID1963426", "about": "(Molecular Pharmacology Branch, DTP, NCI, 2024);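 also: spheroids exposed to agents for 7 days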;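 as to viability, T/C: 100% = DMSO vehicle control wells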", "tested_on": "186277-243-T-J2-PDC complex spheroid growth, % test/control", "experiment": "Anticancer human tumor 186277-243-T-J2-PDC patient-derived colon adenocarcinoma cell line growth inhibition [Asc]", "conditions": "for IC50: curve of first compound; for viability, T/C: stronger effect = lower value", "description": "Multicellular complex tumor spheroid response to apoptosis pathway targeting inhibitors Alrizomadlin, Pelcitoclax, and Dasminapant in combination with a variety of drugs and investigational agents in selected tumor cell lines\nThe MDM2 inhibitor alrizomadlin, the Bcl-2/Bcl-xL inhibitor pelcitoclax, and the IAPs inhibitor dasminapant were evaluated both individually and in combination with standard of care and investigational anticancer small molecules within a complex spheroid model of solid tumors. . Complex spheroids include a stromal component modeled by human endothelial cells (HUVEC) and fibroblasts modeled by human mesenchymal stem cells (MSCs). The concentration ranges selected for each drug and investigational agent were based upon clinically achievable concentrations if the clinical Cmax of the agent was known.\nCompounds. The drugs and investigational agents: alrizomadlin (APG-115; NSC831270), pelcitoclax (APG-1252; NSC835773), dasminapant (APG-1387;NSC834197), TAK-243 (NSC785004), copanlisib (NSC809693), olaparib (NSC753686), talazoparib (NSC767125), cobimetinib (NSC 768068), eltanexor (KPT-8602, NSC 794443), abemaciclib (NSC 768073), sotorasib (NSC818433), adagrasib (NSC 831453), MRTX-1133 (NSC 836407), Iadademestat (ORY1001, NSC 806812), and RMC-4630 (NSC839698), were obtained from the NCI Developmental Therapeutics Program Chemical Repository. The FDA-approved anticancer drug set is available from the Developmental Therapeutics Program at https://dtp.cancer.gov/organization/dscb/obtaining/available plates.htm. […] The stock solutions were prepared in dimethyl sulfoxide (DMSO, Sigma-Aldrich, St. Louis, MO, cat. D2650) at 800-fold the tested concentration and stored at -70 degrees C prior to their use. All drugs and investigational agents were tested over a range starting from a high concentration at or near the clinical Cmax and decreasing in half-log increments. If the clinical Cmax for an agent had not been determined, the highest concentration tested was 10 microM.\nThe patient-derived cancer (PDC) cell lines include five colon adenocarcinomas: 186277-243-T-J2-PDC, 616215-338-R-J1-PDC, 439559-082-T-J2-PDC, 463943-066-T-J2-PDC, and 519858-162-T-J1-PDC; three pancreatic carcinomas: 323965-272-R-J2-PDC, 521955-158-R6-J3-PDC, and 521955-158-R2-J5-PDC; two uterine sarcomas: 327498-152-R-J2-PDC and 993429-296-R-J1-PDC; two rhabdomyosarcomas: 755483-174-R-J1-PDC and 772245-204-R-J1-PDC; two soft tissue sarcomas: 126254-015-R-J1-PDC and 494315-158-R-J1-PDC; two malignant fibrous histiocytomas: 317291-083-R-J1-PDC and 596521-263-R-J1-PDC; two breast carcinomas: 171881-019-R-J1-PDC and 885512-296-R-J2-PDC; and one ovarian carcinoma: 6556581-035-R-J-PDC were obtained from the NCI PDMR, (https://pdmr.cancer.gov). The established cell lines HSSY-2 synovial sarcoma (RRID:CVCL 8719), SYO-1 synovial sarcoma (RRID:CVCL_7146), MPNST malignant peripheral neural sheath tumor were obtained from the Sloan Kettering Institute. The following established cell lines were purchased from the American Type Culture Collection (ATCC, Manassas, VA), Sor the received from the NCI repository:, PANC-1 pancreatic carcinoma (CRL-1469, RRID:CVCL_0480), OVCAR-5 ovarian carcinoma (RRID:CVCL_1628), OVCAR-8 ovarian carcinoma (RRID:CVCL_1629), , MCF-7 breast carcinoma (CRL-12584, RRID:CVCL_0031), MDA-MB-231 breast carcinoma (CRL-12532, RRID:CVCL_0062), NCI-H1876 small cell lung carcinoma (CRL-5902, RRID:CVCL_1503), NCI-H510A small cell lung carcinoma (HTB-184, RRID:CVCL_1565), NCI-H1417 (CRL-5869, RRID:CVCL_1469), and NCI-H196 small cell lung carcinoma (CRL-5823, RRID:CVCL_1509). Dr. Peter Houghton (Greehey Children's Cancer Research Institute, University of Texas Health Science Center, San Antonio, TX) provided Rh-18 rhabdomyosarcoma (RRID:CVCL_1659). Pooled donor human umbilical vein endothelial cells (HUVEC, Lonza, cat. CC-2519) and human mesenchymal stem cells (hMSC, Lonza, cat. PT-2501) were purchased from Lonza (Walkersville, MD).\nCell Culture. […]"}
{"smiles": "CCN1CCN(Cc2ccc(Nc3ncc(F)c(-c4cc(F)c5nc(C)n(C(C)C)c5c4)n3)nc2)CC1", "note": "+ CCN1C(C(=O)NC23CCC(C(=O)O)(CC2)CC3)C(c2cccc(Cl)c2F)C2(C(=O)Nc3cc(Cl)ccc32)C12CCCCC2", "values": [{"measurement": "IC50", "setting": "second compound 0.03 µM", "value": "> 1", "unit": "µM"}, {"measurement": "IC50", "setting": "second compound 0.0949 µM", "value": "> 1", "unit": "µM"}, {"measurement": "IC50", "setting": "second compound 0.3 µM", "value": 0.704, "unit": "µM"}, {"measurement": "IC50", "setting": "second compound 0.949 µM", "value": 0.0246, "unit": "µM"}, {"measurement": "IC50", "setting": "second compound 3 µM", "value": "< 0.00316", "unit": "µM"}, {"measurement": "viability, T/C", "setting": "second compound 0.03 µM, first compound 0.00316 µM", "value": 114, "unit": "%"}, {"measurement": "viability, T/C", "setting": "second compound 0.03 µM, first compound 0.01 µM", "value": 130, "unit": "%"}, {"measurement": "viability, T/C", "setting": "second compound 0.03 µM, first compound 0.0316 µM", "value": 112, "unit": "%"}, {"measurement": "viability, T/C", "setting": "second compound 0.03 µM, first compound 0.1 µM", "value": 97, "unit": "%"}, {"measurement": "viability, T/C", "setting": "second compound 0.03 µM, first compound 0.316 µM", "value": 99.6, "unit": "%"}, {"measurement": "viability, T/C", "setting": "second compound 0.03 µM, first compound 1 µM", "value": 85.2, "unit": "%"}, {"measurement": "viability, T/C", "setting": "second compound 0.0949 µM, first compound 0.00316 µM", "value": 107, "unit": "%"}, {"measurement": "viability, T/C", "setting": "second compound 0.0949 µM, first compound 0.01 µM", "value": 99.8, "unit": "%"}, {"measurement": "viability, T/C", "setting": "second compound 0.0949 µM, first compound 0.0316 µM", "value": 89.4, "unit": "%"}, {"measurement": "viability, T/C", "setting": "second compound 0.0949 µM, first compound 0.1 µM", "value": 75, "unit": "%"}, {"measurement": "viability, T/C", "setting": "second compound 0.0949 µM, first compound 0.316 µM", "value": 82.3, "unit": "%"}, {"measurement": "viability, T/C", "setting": "second compound 0.0949 µM, first compound 1 µM", "value": 64.7, "unit": "%"}, {"measurement": "viability, T/C", "setting": "second compound 0.3 µM, first compound 0.00316 µM", "value": 68.1, "unit": "%"}, {"measurement": "viability, T/C", "setting": "second compound 0.3 µM, first compound 0.01 µM", "value": 74.7, "unit": "%"}, {"measurement": "viability, T/C", "setting": "second compound 0.3 µM, first compound 0.0316 µM", "value": 65.8, "unit": "%"}, {"measurement": "viability, T/C", "setting": "second compound 0.3 µM, first compound 0.1 µM", "value": 61.6, "unit": "%"}, {"measurement": "viability, T/C", "setting": "second compound 0.3 µM, first compound 0.316 µM", "value": 64.2, "unit": "%"}, {"measurement": "viability, T/C", "setting": "second compound 0.3 µM, first compound 1 µM", "value": 44.6, "unit": "%"}, {"measurement": "viability, T/C", "setting": "second compound 0.949 µM, first compound 0.00316 µM", "value": 49.7, "unit": "%"}, {"measurement": "viability, T/C", "setting": "second compound 0.949 µM, first compound 0.01 µM", "value": 52.6, "unit": "%"}, {"measurement": "viability, T/C", "setting": "second compound 0.949 µM, first compound 0.0316 µM", "value": 50.4, "unit": "%"}, {"measurement": "viability, T/C", "setting": "second compound 0.949 µM, first compound 0.1 µM", "value": 44.3, "unit": "%"}, {"measurement": "viability, T/C", "setting": "second compound 0.949 µM, first compound 0.316 µM", "value": 39.5, "unit": "%"}, {"measurement": "viability, T/C", "setting": "second compound 0.949 µM, first compound 1 µM", "value": 34.7, "unit": "%"}, {"measurement": "viability, T/C", "setting": "second compound 3 µM, first compound 0.00316 µM", "value": 29.1, "unit": "%"}, {"measurement": "viability, T/C", "setting": "second compound 3 µM, first compound 0.01 µM", "value": 31.5, "unit": "%"}, {"measurement": "viability, T/C", "setting": "second compound 3 µM, first compound 0.0316 µM", "value": 26.8, "unit": "%"}, {"measurement": "viability, T/C", "setting": "second compound 3 µM, first compound 0.1 µM", "value": 25.7, "unit": "%"}, {"measurement": "viability, T/C", "setting": "second compound 3 µM, first compound 0.316 µM", "value": 23.2, "unit": "%"}, {"measurement": "viability, T/C", "setting": "second compound 3 µM, first compound 1 µM", "value": 24.6, "unit": "%"}]}
